Source: PubChem BioAssay (NCI)
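A five-concentration, 48-hour dose response in 96-well plates underlies each endpoint, interpolated linearly between surrounding concentrations. GI50 marks 50% less growth. At the TGI there is no net growth.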

Tests used:
Assay in all cases: NCI-60 cell line screen, 48 h
786-0 renal = tested on: 786-0 renal
TK-10 renal = tested on: TK-10 renal
HL-60(TB) leukemia = tested on: HL-60(TB) leukemia
DU-145 prostate = tested on: DU-145 prostate
SF-268 CNS = tested on: SF-268 CNS
SK-MEL-2 melanoma = tested on: SK-MEL-2 melanoma
KM12 colon = tested on: KM12 colon
T-47D breast = tested on: T-47D breast
A498 renal = tested on: A498 renal

Row | Structure (SMILES) | TGI (786-0 renal) | TGI (TK-10 renal) | TGI (HL-60(TB) leukemia) | TGI (DU-145 prostate) | TGI (SF-268 CNS) | TGI (SK-MEL-2 melanoma) | TGI (KM12 colon) | TGI (T-47D breast) | TGI (A498 renal) | GI50 (SF-268 CNS) | GI50 (KM12 colon)
1 | C=C(CO[Si](C)(C)C(C)(C)C)C(C)=O | 34.3 µM | > 100 µM | > 100 µM | > 100 µM | > 74.6 µM | 54.7 µM | > 100 µM | 56.1 µM | > 100 µM | – | –
2 | O=C(Cn1c(C(=O)/C=C/c2cccs2)nc2ccccc21)c1ccc(Cl)cc1 | 32.8 µM | 89.5 µM | 61.3 µM | > 100 µM | 66.5 µM | 20.8 µM | 46.6 µM | > 100 µM | 57.9 µM | – | –
3 | CCOC(=O)c1cnc2oc3ccc(O)cc3c2c1-c1ccccc1 | > 100 µM | > 100 µM | > 100 µM | > 100 µM | > 100 µM | > 100 µM | > 100 µM | > 100 µM | > 100 µM | 29.7 µM | 5.11 µM
4 | COc1cc(/C=C2\Sc3scc(-c4cccc([N+](=O)[O-])c4)[n+]3C2=O)cc(OC)c1OC | 22.2 µM | 22.6 µM | 82.1 µM | 30.2 µM | 42.1 µM | 39.8 µM | 41.6 µM | 25 µM | > 100 µM | – | –
5 | CC(C)C(OC(=O)c1ccc(NCc2cc(O)ccc2O)cc1)C(C)C | 2.42 µM | 3.62 µM | 0.484 µM | 20.9 µM | 5.3 µM | 6.68 µM | 11.1 µM | 3.4 µM | 9.58 µM | – | –
6 | CC(=O)Oc1c2oc3ccc(Cl)cc3c(=O)c2c(O)c2ccsc12 | > 100 µM | > 100 µM | > 100 µM | > 100 µM | > 100 µM | > 100 µM | > 100 µM | 86.7 µM | > 100 µM | – | –
7 | OC(CCNCc1ccccc1)c1ccc2ccccc2c1 (centres undefined) | 35.9 µM | 33.6 µM | 43.2 µM | 39.6 µM | 48 µM | 38.9 µM | 31.7 µM | 49.9 µM | 40 µM | – | –
8 | CC1=NN(c2nc(N)nc(/C(C#N)=C/c3cccn3-c3cc(Cl)cc(Cl)c3)n2)C(C)(C)C1 | > 100 µM | > 100 µM | > 100 µM | > 100 µM | > 100 µM | > 100 µM | > 100 µM | > 100 µM | > 100 µM | – | –
9 | CCNC(=O)c1cc(/C=C/c2ccc([N+](=O)[O-])o2)nc2ccccc12 | > 100 µM | > 91.9 µM | > 100 µM | > 100 µM | > 100 µM | 16.6 µM | > 100 µM | > 100 µM | 71 µM | – | –
10 | O=C(Nc1ccccc1)N(CCCCN(Cc1ccccc1)C(=O)Nc1ccccc1)Cc1ccccc1 | > 100 µM | > 100 µM | > 100 µM | > 100 µM | > 100 µM | > 100 µM | > 100 µM | > 100 µM | > 100 µM | – | –
11 | COc1cc(C2c3cc4c(cc3OC(NNC(N)=O)C2C)OCO4)cc(OC)c1O (centres undefined) | > 80.1 µM | > 73.8 µM | 7.84 µM | 33.7 µM | > 100 µM | > 74.4 µM | > 69.9 µM | > 100 µM | 35.7 µM | – | –
12 | N#Cc1ccccc1-c1nc2c3c(c(N)ccc3n1)C(=O)c1ccccc1-2 | > 100 µM | > 100 µM | > 100 µM | > 100 µM | > 100 µM | > 100 µM | > 100 µM | > 100 µM | > 100 µM | – | –
13 | CCOC(=O)c1nc2ccc(C(F)(F)F)cc2nc1Oc1cc(OC)cc(OC)c1 | > 100 µM | > 100 µM | > 100 µM | > 100 µM | > 100 µM | > 100 µM | > 100 µM | > 100 µM | > 100 µM | – | –
14 | COC(=O)C(Cc1ccccc1)NP(=O)(O)OCC1OC(n2cc(F)c(=O)[nH]c2=O)CC1O (centres undefined) | > 100 µM | > 100 µM | > 100 µM | > 100 µM | > 100 µM | > 100 µM | > 100 µM | > 100 µM | > 100 µM | – | –
15 | COC(=O)c1c(O)ccc2c1c1c(n2Cc2cccc(C)c2)C(=O)c2ccccc2C1=O | 25.8 µM | 25.2 µM | 45.9 µM | 32.6 µM | 25.9 µM | 27.4 µM | 28 µM | 12.4 µM | 33.9 µM | – | –
16 | Cc1ccc2c(c1C)C(=O)/C(=C/c1ccccc1C(=O)O)C2 | > 100 µM | > 100 µM | > 100 µM | > 100 µM | > 100 µM | > 100 µM | > 100 µM | > 100 µM | > 100 µM | – | –
17 | C=C(C)C(O)C(O)c1c(OC)ccc2ccc(=O)oc12 (centres undefined) | > 100 µM | > 100 µM | > 100 µM | > 100 µM | > 100 µM | > 100 µM | > 100 µM | > 100 µM | > 100 µM | – | –
18 | O=c1ccn(CC2(CO)CC(Cc3ccccc3)C2)c(=O)[nH]1 (centres undefined) | > 100 µM | > 100 µM | > 100 µM | > 100 µM | > 100 µM | > 100 µM | > 100 µM | > 100 µM | > 100 µM | – | –
19 | CC(C)(Oc1ccc(Cl)cc1)C(=O)N(C(=O)N1CCC(c2ccccc2)CC1)c1ccccc1 | > 100 µM | > 100 µM | 29 µM | > 100 µM | > 100 µM | > 100 µM | > 100 µM | > 30.3 µM | > 100 µM | – | –
20 | CC1(C)CC(C)(C)C1=NNC(N)=O | > 100 µM | > 100 µM | > 100 µM | > 100 µM | > 100 µM | > 100 µM | > 100 µM | > 100 µM | > 100 µM | – | –
21 | CN(C)c1nc2oc(-c3ccccc3)c(-c3ccccc3)c2c2nnnn12 | > 100 µM | > 100 µM | 96.2 µM | > 100 µM | > 100 µM | – | > 100 µM | > 100 µM | > 100 µM | – | –
22 | O=C(O)c1nc(-c2ccccc2)[nH]c1C(=O)O | 22.5 µM | 28.8 µM | 0.49 µM | 28.2 µM | 34.8 µM | 21.3 µM | 14.6 µM | 33.1 µM | 29.1 µM | – | –
